Assays:
Format in all cases: cell-based
[1] = tested on: Enterococcus faecalis ATCC 19433; test: Minimum inhibitory concentration (NCCLS dilution method); details: Enterococcus faecalis ATCC 19433, Gram positive; triplicate, identical values
Protocol: (§1) Bacterial Strains and Culture Conditions. Paenibacillus amylolyticus C27, C25, C26, C28, and C30 were isolated from the hindgut extract of a Tipula abdominalis larva as described in Cook et al. (2007, Appl. Environ. Microbiol., 73:5683-5686), and grown aerobically at 28° C. on tryptic soy agar (TSA) and in tryptic soy both (TSB) or Davis minimal media broth (MM) (Atlas, 1993, Handbook of Microbiological Media, Boca Raton, Fla., CRC Press, Inc.). Escherichia coli ATCC 11303 was grown aerobically at 37° C. on Luria-Bertani agar or in broth. Enterococcus faecalis ATCC 19433, Pseudomonas aeruginosa ATCC 27853, Salmonella typhimurium ATCC 29629, Shigella fexneri ATCC 9199, Bacillus subtilis ATCC 6633, Staphylococcus aureus ATCC 6538, and Streptococcus pyogenes ATCC 19615 were grown aerobically at 37° C. on TSA.
(§2) Minimum inhibitory concentrations. Both P. amylolyticus C27 peaks with antibacterial activity from HPLC purification of 500 mL minimal media culture were combined. For analysis of polymyxin B (Sigma-Aldrich, St. Louis, Mo.), polymyxin E (Sigma-Aldrich, St. Louis, Mo.), and the P. amylolyticus C27 antibacterials, MIC determinations were performed according to the National Committee for Clinical Laboratory Standards (NCCLS) (Table 2) (NCCLS, 2003, Methods for dilution antimicrobial susceptibility tests for bacteria that grow aerobically; approved standard—sixth edition. NCCLS document M7-A6. Wayne, Pa., National Committee for Clinical Laboratory Standards).

[2] = tested on: Escherichia coli ATCC 11303; test: as above; details: Escherichia coli ATCC 11303, Gram negative; triplicate, identical values
Protocol: as §1, §2

[3] = tested on: Pseudomonas aeruginosa ATCC 27853; test: as above; details: Pseudomonas aeruginosa ATCC 27853, Gram negative; triplicate, identical values
Protocol: as §1, §2

[4] = tested on: Salmonella typhimurium ATCC 29629; test: as above; details: Salmonella typhimurium ATCC 29629 (first line, r15), Gram negative; triplicate, identical values
Protocol: as §1, §2

[5] = tested on: Staphylococcus aureus ATCC 6538; test: as above; details: Staphylococcus aureus ATCC 6538, Gram positive; triplicate, identical values
Protocol: as §1, §2

[6] = tested on: Streptococcus pyogenes ATCC 19615; test: as above; details: Streptococcus pyogenes ATCC 19615, Gram positive; triplicate, identical values
Protocol: as §1, §2

[7] = tested on: Salmonella typhimurium ATCC 29629; test: Minimum inhibitory concentration (NCCLS dilution method), Salmonella typhimurium [sic]; details: Salmonella typhimurium ATCC 29629 (second line, r16), Gram negative; triplicate, identical values
Protocol: as §1
Minimum inhibitory concentrations. Both P. amylolyticus C27 peaks with antibacterial activity from HPLC purification of 500 mL minimal media culture were combined. […]

Row | Substance | Minimum inhibitory concentration [1] [µg/mL] | Minimum inhibitory concentration [2] [µg/mL] | Minimum inhibitory concentration [3] [µg/mL] | Minimum inhibitory concentration [4] [µg/mL] | Minimum inhibitory concentration [5] [µg/mL] | Minimum inhibitory concentration [6] [µg/mL] | Minimum inhibitory concentration [7] [µg/mL]
1 | polymyxin E | >128 | 2 | 4 | 1 | 128 | >128 | 2
2 | polymyxin B | >128 | 2 | 4 | 4 | 32 | 32 | 4
